Assay results as given in paper PMC9098913, “In vitro reconstitution of Escherichia coli divisome activation” (Nature Communications, 2022).

Test: Diffusion coefficient of His-tagged FtsAs and His-SUMO on Tris-NTA membranes (FRAP)
Description: To study colocalization of His-tagged variants of FtsA, 0.5–1 µM of Cy5 labelled His-tagged FtsAs were added to the chamber, incubated for 20 min and washed 6x with reaction buffer. […] To control the density of membrane-bound FtsA, SUVs without and with Tris-NTA lipids were mixed to obtain the respective Tris-NTA concentrations. To perform FRET/FRAP experiments, equimolar concentrations of Cy3 and Cy5 labelled His-tagged FtsAs (total 0.5–1 µM) or His-SUMO-Cys were added to a chamber and treated as above. […] FRAP experiments were performed as described before.
Bleaching the acceptor dye leads to an increase in the donor intensity, which can be used to quantify the Foerster Resonance energy transfer (FRET)[48]. FRET efficiency was quantified with E%=Ipost/Ipost+Ipre⋅100 , where Ipost is the intensity of the […] and Ipre is the […]. […] To extract the contribution of both processes, we adjusted a routine recently published by Gerganova et al.[33]. In short, the code provides the contribution of both modes of recovery by analysing the shape of the fluorescence recovery profile. […] Contribution of diffusion leads to a change of the slope of the outer borders of the bleached region (S4h right). Thus, by measuring the change of the slope of the border recovery, diffusion and simple on/off binding can be distinguished. We developed “FRAPdiff”, a graphical user interface, which uses the original fit routine by David Rutkowski. It can be used directly on.tiff movies with annotated bleach regions as ImageJ ROIs. In addition, we added optional bleach correction, user selectable projection axis (x or y), and optional mirroring of the recovery profiles, if bleaching was not symmetric. The original fit routine for estimating the recovery and diffusion dynamics can be found at https://github.com/davidmrutkowski/1DReflectingDiffusion. FRAPdiff is available at 10.5281/zenodo.6400639[49] under the GPLv3 open-source license.

## FtsA-His6: FtsA WT (1-405) with amphipathic helix replaced by C-terminal His-tag
0.1% Tris NTA, + FtsZ, mean (n: WT 2, R286W 3)
  Diffusion Coefficient: 0.07 µm2/s
0.1% Tris NTA, + FtsZ, replicate Exp1
  Diffusion Coefficient: 0.14 µm2/s
0.1% Tris NTA, + FtsZ, replicate Exp2
  Diffusion Coefficient: 0.000245 µm2/s
0.1% Tris NTA, without FtsZ, replicate Exp1
  Diffusion Coefficient: 0.35 µm2/s
0.1% Tris NTA, without FtsZ, replicate Exp2
  Diffusion Coefficient: 0.29 µm2/s
0.4% Tris NTA, + FtsZ, mean (n: WT 2, R286W 3)
  Diffusion Coefficient: 0.0146 µm2/s
0.4% Tris NTA, + FtsZ, replicate Exp1
  Diffusion Coefficient: 0.0175 µm2/s
0.4% Tris NTA, + FtsZ, replicate Exp2
  Diffusion Coefficient: 0.0117 µm2/s
0.4% Tris NTA, without FtsZ, replicate Exp1
  Diffusion Coefficient: 0.11 µm2/s
0.4% Tris NTA, without FtsZ, replicate Exp2
  Diffusion Coefficient: 0.10 µm2/s
0.6% Tris NTA, + FtsZ, mean (n: WT 5, R286W 5)
  Diffusion Coefficient: 0.0113 µm2/s
0.6% Tris NTA, + FtsZ, replicate Exp1
  Diffusion Coefficient: 0.02 µm2/s
0.6% Tris NTA, + FtsZ, replicate Exp2
  Diffusion Coefficient: 0.01 µm2/s
0.6% Tris NTA, + FtsZ, replicate Exp3
  Diffusion Coefficient: 0.0152 µm2/s
0.6% Tris NTA, + FtsZ, replicate Exp4
  Diffusion Coefficient: 0.00625 µm2/s
0.6% Tris NTA, + FtsZ, replicate Exp5
  Diffusion Coefficient: 0.00411 µm2/s
0.6% Tris NTA, without FtsZ, mean (n: WT 4, R286W 5, SUMO 4)
  Diffusion Coefficient: 0.03 µm2/s
0.6% Tris NTA, without FtsZ, replicate Exp1
  Diffusion Coefficient: 0.0256 µm2/s
0.6% Tris NTA, without FtsZ, replicate Exp2
  Diffusion Coefficient: 0.00783 µm2/s
0.6% Tris NTA, without FtsZ, replicate Exp3
  Diffusion Coefficient: 0.0422 µm2/s
0.6% Tris NTA, without FtsZ, replicate Exp4
  Diffusion Coefficient: 0.046 µm2/s
0.8% Tris NTA, + FtsZ, mean
  Diffusion Coefficient: 0.012 µm2/s
0.8% Tris NTA, + FtsZ, replicate Exp1
  Diffusion Coefficient: 0.00842 µm2/s
0.8% Tris NTA, + FtsZ, replicate Exp2
  Diffusion Coefficient: 0.00437 µm2/s
0.8% Tris NTA, + FtsZ, replicate Exp3
  Diffusion Coefficient: 0.00795 µm2/s
0.8% Tris NTA, + FtsZ, replicate Exp4
  Diffusion Coefficient: 0.03 µm2/s
0.8% Tris NTA, + FtsZ, replicate Exp5
  Diffusion Coefficient: 0.00835 µm2/s
0.8% Tris NTA, without FtsZ, mean
  Diffusion Coefficient: 0.0135 µm2/s
0.8% Tris NTA, without FtsZ, replicate Exp1
  Diffusion Coefficient: 0.0179 µm2/s
0.8% Tris NTA, without FtsZ, replicate Exp3
  Diffusion Coefficient: 8.35e-15 µm2/s
0.8% Tris NTA, without FtsZ, replicate Exp4
  Diffusion Coefficient: 0.0124 µm2/s
0.8% Tris NTA, without FtsZ, replicate Exp5
  Diffusion Coefficient: 0.0374 µm2/s
1% Tris NTA, + FtsZ, mean
  Diffusion Coefficient: 0.02 µm2/s
1% Tris NTA, + FtsZ, replicate Exp1
  Diffusion Coefficient: 0.0115 µm2/s
1% Tris NTA, + FtsZ, replicate Exp2
  Diffusion Coefficient: 0.00322 µm2/s
1% Tris NTA, + FtsZ, replicate Exp3
  Diffusion Coefficient: 0.00542 µm2/s
1% Tris NTA, + FtsZ, replicate Exp4
  Diffusion Coefficient: 0.00574 µm2/s
1% Tris NTA, + FtsZ, replicate Exp5
  Diffusion Coefficient: 0.07 µm2/s
1% Tris NTA, + FtsZ, replicate Exp6
  Diffusion Coefficient: 0.0435 µm2/s
1% Tris NTA, + FtsZ, replicate Exp7
  Diffusion Coefficient: 0.000437 µm2/s
1% Tris NTA, without FtsZ, mean
  Diffusion Coefficient: 0.0254 µm2/s
1% Tris NTA, without FtsZ, replicate Exp1
  Diffusion Coefficient: 0.0438 µm2/s
1% Tris NTA, without FtsZ, replicate Exp2
  Diffusion Coefficient: 0.000108 µm2/s
1% Tris NTA, without FtsZ, replicate Exp3
  Diffusion Coefficient: 6.32e-6 µm2/s
1% Tris NTA, without FtsZ, replicate Exp4
  Diffusion Coefficient: 0.06 µm2/s
Tris 0.10 %, + FtsZ
  Diffusion Coefficient: 0.07 µm2/s
Tris 0.10 %, without FtsZ
  Diffusion Coefficient: 0.32 µm2/s
Tris 0.40 %, + FtsZ
  Diffusion Coefficient: 0.0146 µm2/s
Tris 0.40 %, without FtsZ
  Diffusion Coefficient: 0.11 µm2/s
Tris 0.60 %, + FtsZ
  Diffusion Coefficient: 0.0113 µm2/s
Tris 0.60 %, without FtsZ
  Diffusion Coefficient: 0.03 µm2/s
Tris 0.80 %, + FtsZ
  Diffusion Coefficient: 0.012 µm2/s
Tris 0.80 %, without FtsZ
  Diffusion Coefficient: 0.0135 µm2/s
Tris 1.00 %, + FtsZ
  Diffusion Coefficient: 0.02 µm2/s
Tris 1.00 %, without FtsZ
  Diffusion Coefficient: 0.0254 µm2/s
Tris 2.00 %, + FtsZ
  Diffusion Coefficient: 0.000263 µm2/s
Tris 2.00 %, without FtsZ
  Diffusion Coefficient: 0.00604 µm2/s
[…] Tris NTA, + FtsZ, mean (n: WT 2, R286W 3)
  Diffusion Coefficient: 0.03 µm2/s
[…] Tris NTA, + FtsZ, replicate Exp1
  Diffusion Coefficient: 0.05 µm2/s
[…] Tris NTA, + FtsZ, replicate Exp2
  Diffusion Coefficient: 0.0108 µm2/s
[…] Tris NTA, without FtsZ, replicate Exp1
  Diffusion Coefficient: 0.11 µm2/s
[…] Tris NTA, without FtsZ, replicate Exp2
  Diffusion Coefficient: 0.14 µm2/s
[…] Tris-NTA, + N (FtsNcyto), mean
  Diffusion Coefficient: 1.72E-05 µm2/s
[…] Tris-NTA, + N/Z, Exp. 1
  Diffusion Coefficient: 1.69E-05 µm2/s
[…] Tris-NTA, + N/Z, Exp. 2
  Diffusion Coefficient: 1.87E-06 µm2/s
[…] Tris-NTA, + N/Z, Exp. 3
  Diffusion Coefficient: 5.64E-12 µm2/s
[…] Tris-NTA, + N/Z, mean
  Diffusion Coefficient: 6.26E-06 µm2/s
[…] Tris-NTA, + N, Exp. 1
  Diffusion Coefficient: 1.23E-05 µm2/s
[…] Tris-NTA, + N, Exp. 2
  Diffusion Coefficient: 2.69E-05 µm2/s
[…] Tris-NTA, + N, Exp. 3
  Diffusion Coefficient: 1.23E-05 µm2/s
[…] Tris-NTA, + Z (FtsZ), mean
  Diffusion Coefficient: 1.67E-03 µm2/s
[…] Tris-NTA, + Z, Exp. 1
  Diffusion Coefficient: 3.64E-05 µm2/s
[…] Tris-NTA, + Z, Exp. 2
  Diffusion Coefficient: 4.36E-03 µm2/s
[…] Tris-NTA, + Z, Exp. 3
  Diffusion Coefficient: 1.74E-03 µm2/s
[…] Tris-NTA, + Z, Exp. 4
  Diffusion Coefficient: 5.51E-04 µm2/s
[…] Tris-NTA, alone, Exp. 1
  Diffusion Coefficient: 1.17E-02 µm2/s
[…] Tris-NTA, alone, Exp. 2
  Diffusion Coefficient: 2.57E-05 µm2/s
[…] Tris-NTA, alone, Exp. 3
  Diffusion Coefficient: 3.15E-03 µm2/s
[…] Tris-NTA, alone, Exp. 4
  Diffusion Coefficient: 7.92E-04 µm2/s
[…] Tris-NTA, alone, mean
  Diffusion Coefficient: 3.92E-03 µm2/s
